{"source": "patent US7579370B2", "about": "“Fused heterocycles” (Sepracor Inc., priority 2006, dated 2009)", "key": {"Sprague-Dawley rats": {"tested_on": "Sprague-Dawley rats", "test": "Rat Chung model (L5 spinal nerve ligation), paw withdrawal threshold with von Frey hairs", "assay_type": "in vivo", "procedure": "Adult male Sprague-Dawley rats, weighing 200-230 g at the time of surgery, were used. They were housed in groups of 4 in an air-conditioned room on a 12 h light/dark cycle. Food and water were available ad libitu. The animals were allowed to acclimatize to the experimental environment for three days by leaving them on a lifted metal mesh for at least 40 min. The baseline paw withdrawal threshold (PWT) was examined using a series of graduated von Frey hairs for 3 consecutive days before surgery and re-assessed on the 7th day after surgery and on the 11th to 14th day before drug dosing. The rat Chung model was prepared as described by Kim and Chung (1992). The rat was anaesthetized with 5% isoflurane mixed with oxygen (2 L per min) followed by an i.p. injection of sodium pentobarbitone at 50 mg/kg. The back was shaved and sterilized with 75% ethanol. The animal was placed in a prone position and a para-medial incision was made on the skin covering L4-6 level. The L5 spinal nerve was carefully isolated and tightly ligated with 6/0 silk suture. The wound was then closed in layers after a complete hemostasis. A single dose of antibiotics (Amoxipen 15 mg/rat, ip) was routinely given for prevention of infection after surgery. The animals were placed in a temperature controlled recovery chamber until fully awake before being returned to the home cage. The animals were placed in individual Perspex boxes on a raised metal mesh for at least 40 min before the test. Starting with the filament of lowest force, each filament was applied perpendicularly to the center of the ventral surface of the paw until slightly bent for 6 seconds. If the animal withdrew or lifted the paw upon stimulation, then a hair with force immediately lower than that tested was used. If no response was observed, then a hair with force immediately higher was tested. The lowest amount of force required to induce reliable responses (positive in 3 out of 5 trials) was recorded as the value of PWT. Only those animals with significant allodynia (PWT≦3.5 g) were selected for drug dosing experiments. The rats in a neuropathic pain state were randomly divided into experimental groups: Vehicle group and 1 group had 8 rats and the gabapentin group had 9 rats. The drug test was carried out 12 to 14 days after surgery. Isotonic 50 mM phosphate buffer (PB), dosed orally at 3 mL/kg, served as the vehicle control. Gabapentin was dissolved in normal saline and given orally at 100 mg/kg. […] The PWT was assessed at 1, 3, 6 and 24 h following drug or vehicle administration. The animals were returned to their home cage for a break (about 30 min) between two neighboring testing time points. One-way analysis of variance (ANOVA) (SPSS software) was used for statistical analysis to compare different groups on the same time points. Paired Student -t test was used to compare different time points in the same group. The significance level was set at P<0.05."}, "Human DAAO": {"biological_target": "Human DAAO (Homo sapiens, UniProt P14920)", "sequence (P14920 whole entry)": "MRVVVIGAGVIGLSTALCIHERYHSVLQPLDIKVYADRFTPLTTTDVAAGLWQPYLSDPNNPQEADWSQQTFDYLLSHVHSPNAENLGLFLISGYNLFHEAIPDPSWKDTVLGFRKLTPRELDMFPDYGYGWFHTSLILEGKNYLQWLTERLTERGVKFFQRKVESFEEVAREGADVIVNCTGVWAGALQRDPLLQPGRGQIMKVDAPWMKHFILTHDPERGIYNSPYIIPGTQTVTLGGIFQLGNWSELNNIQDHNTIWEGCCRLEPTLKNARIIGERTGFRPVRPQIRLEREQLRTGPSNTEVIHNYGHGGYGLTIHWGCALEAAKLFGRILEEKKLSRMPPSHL", "test": "D-Amino Acid Oxidase enzyme assay (D-serine, horseradish peroxidase/Amplex Red coupled)", "assay_type": "biochemical", "conditions": "D-serine 5 mM, pH 7.4; read-out: Human DAAO Inhibition [IC50]", "description": "This coupled reaction uses the enzyme substrate Amplex Red (Molecular Probes), which is converted to the fluorescent reaction product, resorufin (excitation 530-560 nm; emission ˜590 nm). Although DAAO has a higher pH optimum, all reagents were prepared in 50 mM sodium phosphate buffer at pH 7.4 and inhibition curves were generated at this pH.\nThe reactions were initiated by addition of DAAO enzyme while the fluorescence was monitored. […] Inhibition curves were generated in the presence of varying concentrations of the inhibitor and IC50 values were calculated for each inhibitor."}}}
{"smiles": "O=C(O)c1cc2occc2[nH]1", "note": "[Compound 11, 4H-Furo[3,2-b]pyrrole-5-carboxylic acid]", "values": [{"measurement": "Effect on paw withdrawal threshold (PWT)", "setting": "Sprague-Dawley rats; oral dose of 10 mg/kg", "value": "significantly elevated the PWT"}]}
{"smiles": "O=C(O)c1cc2occ(CCc3ccccc3)c2[nH]1", "note": "[Compound 17, 3-phenethyl-4H-furo[3,2-b]pyrrole-5-carboxylic acid]", "values": [{"measurement": "IC50", "setting": "Human DAAO", "value": "< 1", "unit": "µM"}]}
{"smiles": "O=C(O)c1cc2oc(Cc3ccccc3)cc2[nH]1", "note": "[Compound 24, 2-benzyl-4H-furo[3,2-b]pyrrole-5-carboxylic acid]", "values": [{"measurement": "IC50", "setting": "Human DAAO", "value": "< 100", "unit": "µM"}]}
{"smiles": "O=C(O)c1cc2occ(Cc3ccccc3)c2[nH]1", "note": "[Compound 26, 3-benzyl-4H-furo[3,2-b]pyrrole-5-carboxylic acid]", "values": [{"measurement": "IC50", "setting": "Human DAAO", "value": "< 100", "unit": "µM"}]}
{"smiles": "C=Cc1coc2cc(C(=O)O)[nH]c12", "note": "[Compound 32, 3-vinyl-4H-furo[3,2-b]pyrrole-5-carboxylic acid]", "values": [{"measurement": "IC50", "setting": "Human DAAO", "value": "< 0.1", "unit": "µM"}]}
{"smiles": "C/C=C\\c1coc2cc(C(=O)O)[nH]c12", "note": "[Compound 46, (Z)-3-(prop-1-enyl)-4H-furo[3,2-b]pyrrole-5-carboxylic acid]", "values": [{"measurement": "IC50", "setting": "Human DAAO", "value": "< 100", "unit": "µM"}]}
{"smiles": "O=C(O)c1cc2occ(/C=C/c3ccccc3)c2[nH]1", "note": "[Compound 48, (E)-3-Styryl-4H-furo[3,2-b]pyrrole-5-carboxylic acid]", "values": [{"measurement": "IC50", "setting": "Human DAAO", "value": "< 100", "unit": "µM"}]}
{"smiles": "NCC1(CC(=O)O)CCCCC1", "note": "[Gabapentin]", "values": [{"measurement": "Course of the effect on PWT after the peak", "setting": "Sprague-Dawley rats; orally dosed at 100 mg/kg", "value": "gradually declined from 6 hours onwards"}, {"measurement": "Time at which the effect on PWT commenced after dosing", "setting": "Sprague-Dawley rats; orally dosed at 100 mg/kg", "value": "first hour"}, {"measurement": "Time of peak effect on PWT after dosing", "setting": "Sprague-Dawley rats; orally dosed at 100 mg/kg", "value": 3, "unit": "h"}, {"measurement": "Effect on paw withdrawal threshold (PWT)", "setting": "Sprague-Dawley rats; orally dosed at 100 mg/kg, positive control", "value": "significantly increased the PWT"}]}
